Tests used:
Set-up in all cases: key: “+” indicates that the compound exibits inhibitory activity; “−” indicates that low or no inhibitory activity was observed
[1] = target: T1, E3 (His-APC11/APC2-"APC") (Homo sapiens, UniProt Q9NYG5+Q9UJX6); assay: Gel-based E3 ligase assay, auto-ubiquitination; format: biochemical
Description: E3 (His-APC11/APC2-“APC”) auto-ubiquitination was measured as described in U.S. patent application Ser. No. 09/826,312 (Publication No. U.S. Pat. No. 2,002,0042083-A1), which is incorporated herein in its entirety. Details of the protocol are described below. Activity in the presence of compound was determined relative to a parallel control in which only DMSO is added. The IC50 values were typically determined using 6 or 8 different concentrations of compound, although as few as 2 concentrations may be used to approximate the IC50 values.
Corning 96-well plates (Corning 3650) were blocked with 100 μl of Blocking Buffer for 1 hour at room temperature. The plates were washed 4 times with 225 μl of 1×PBS and 80 μl of the reaction buffer were added that contained 100 ng/well of Flag-ubiquitin. To this, 10 μl of the test compound diluted in DMSO were added. After the test compound was added, 10 μl of E1 (human), E2 (Ubch5c) and APC in Protein Buffer were added to obtain a final concentration of 5 ng/well of E1, 20 ng/well of E2 and 100 ng/well APC. The plates were shaken for 10 minutes and incubated at room temperature for 1 hour. After incubation, the reaction was stopped by adding 25 μl of loading buffer (non-reducing) per well and the plates were heated at 95° C. for 5 minutes. An aliquot of each well was run on a 10% NugePage Gel and analyzed by Western Blot using the antibody mix and Lumino substrate described below. The luminescence was measured by using a BMG luminescence microplate reader.
To prepare the Blocking Buffer (1 liter; 1% Casein in 1×PBS), 10 grams of Casein (Hammersten Grade Casein from Gallard-Schlesinger Inc. #440203) were placed into 1 liter of 1×PBS, stirred on a hot plate and kept between 50-60° C. for an hour. The buffer was allowed to cool to room temperature and then filtered using a Buchner Funnel (Buchner filter funnel 83 mm 30310-109) and Whatman filter paper (Whatman Grade No. 1 Filter paper 28450-070). It was stored at 4° C. until used.
The reaction buffer consisted of 62.5 mM Tris pH 7.6 (Trizma Base—Sigma T-8524), 3 mM MgCl2 (Magnesium Chloride—Sigma M-2393), 1 mM DTT (Sigma D-9779), 2.5 mM ATP (Roche Boehringer Mann Corp. 635-316), 100 ng/well of Flag-ubiquitin, 0.1% BSA (Sigma A-7906), and 0.05% Tween-20 (Sigma P-7949).
The Protein Buffer consisted of 20 mM Tris pH 7.6, 10% glycerol (Sigma G-5516) and 1 mM DTT.
The antibody mix consisted of 0.25% BSA (Sigma A-7906) in 1×PBS, 1/50,000 anti-Flag (Sigma F-3165), 1/100,000 of anti-Mouse IgG-HRP (Jackson Immunoresearch #115-035-146).
The substrate mix consisted of SuperSignal Substrate from Pierce (catalog number 37070ZZ) and was prepared by mixing 100 ml of the peroxide solution, 100 ml of the enhancer solution and 100 ml of Millie water.

A549 cells [2] = assay: Cell proliferation assay, photographic image analysis of proliferation, apoptosis and death (PAD assay), A549; format: cell-based; settings: 6 concentrations tested
Procedure, shortened: (§1)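 Cells grown in RPMI with 5% FBS (2,000/well) and dosed 24 h after plating with 6.3-fold dilutions in duplicate (master plate 500× final, top 10 mM stock). After 48 h at 37 °C, cells formamide-fixed and DAPI-stained. Image analysis counted live, apoptotic and dead cells.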

A549 cells [3] = assay: Non-photographic proliferation analysis (Promega Cell titer Aqueous), A549; format: cell-based; settings: 6 concentrations tested
Procedure, shortened: (§2)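 HeLa, A549 and HCT116 cells, 2,000 per well in RPMI with 5% FBS, were given compounds 24 h after plating as 6.3-fold duplicate dilutions from 10 mM stock, diluted 500-fold into the wells. After 48 h at 37° C, 5% CO2, Cell titer Aqueous reagent was added for 45 min and absorbance read at 490 nm.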

HeLa cells [4] = assay: Cell proliferation assay, photographic image analysis of proliferation, apoptosis and death (PAD assay), HeLa; format: cell-based; settings: 6 concentrations tested
Procedure, shortened: as §1

HeLa cells [5] = assay: Non-photographic proliferation analysis (Promega Cell titer Aqueous), HeLa; format: cell-based; settings: 6 concentrations tested
Procedure, shortened: as §2

HCT116 cells = assay: Cell proliferation assay, photographic image analysis of proliferation, apoptosis and death (PAD assay), HCT116; format: cell-based; settings: 6 concentrations tested
Description: (§3) A549 (ATCC# CCL-185), HeLa (ATCC# CCL-2), HCT116 (ATCC# CCL-247), and H1299 (ATCC# CRL-5803) cells were maintained in T175 flasks following the ATCC recommended media and handling procedures. Flasks reaching approximately 70% confluency were trypsinized and resuspended in RPMI media (Cell-Gro catalog number 10-040-CM) modified to contain 5% FBS, 100 ug/mlPen/Strep (Cell-Gro catalog number 30-002-CL), and 0.3 mg/ml L-Glutamine (Cell-Gro catalog number 25-003-CL). A 20,000 cells/ml solution was made for plating. Cells were plated in black Packard 96 well plates by placing 100 μl per well (2,000 cells per well).
(§4) Compounds and additional media were added 24 hours after cell plating. A compound master plate was created with concentrations 500 times greater than the final concentration added to the cells. All compound testing was done in duplicate using 6.3 fold dilutions starting with 10 mM. All outside wells (and 4 internal wells) were DMSO controls. Taxol and at least one additional control were run on all plates. Three microliters of the compound master plate were added to deep well blocks containing 750 μl of RPMI media. One hundred microliters were transferred from the compound/media deep well blocks to the plated cells resulting in a 500 fold dilution of the compounds. Cells were grown at 37° C., 5% CO2 for 48 hours.
(§5) Cells to be analyzed by photography were fixed and stained. One hundred microliters of media were removed and 100 μl of 9.3% […] was added to each well. Plates were left on the benchtop for 45 minutes. A staining solution containing 1.55 μl of 1 mg/ml DAPI added to 18.75 ml PBS was warmed for 15 minutes at 37° C. The cells were aspirated prior to washing with 100 μl of PBS. Seventy microliters of PBS were aspirated and 170 μl of the DAPI solution were added to each well of fixed cells. Plates were left at room temperature for one hour then aspirated and washed twice with 100 μl of PBS. The stained cells were left at 4° C. for a minimum of 16 hours before photographic analysis with Array Scan II (Cellomics). Analysis of the photographic images to determine numbers of live cells (proliferation), apoptotic cells and dead cells, were according to the methods described in U.S. Provisional Patent Application Ser. No. 60/406,714, which incorporated herein in its entirety.

H1299 cells = assay: Cell proliferation assay, photographic image analysis of proliferation, apoptosis and death (PAD assay), H1299; format: cell-based; settings: 6 concentrations tested
Description: as §3, §4, §5

[6] = target: T1, E3 (His-APC11/APC2-"APC"); assay: Plate-based E3 ligase assay (APC FLAG), auto-ubiquitination; format: biochemical; settings: 8 concentrations tested
Procedure, shortened: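 His-APC11/APC2 auto-ubiquitination was run in casein-blocked nickel plates for 1 h at room temperature, with E1 at 5 ng/well, UbcH5c at 20 ng/well and APC at 100 ng/well. Buffer was 62.5 mM Tris pH 7.6, 3 mM MgCl2, 1 mM DTT, 2.5 mM ATP and Flag-ubiquitin at 100 ng/well. Detection used anti-Flag/HRP chemiluminescence, and IC50 was typically from 6 or 8 concentrations versus a DMSO control.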

T1 sequence (Q9NYG5 whole entry): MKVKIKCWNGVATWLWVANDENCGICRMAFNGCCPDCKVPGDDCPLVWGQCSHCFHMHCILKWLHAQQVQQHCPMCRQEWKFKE
T1 sequence (Q9UJX6 whole entry): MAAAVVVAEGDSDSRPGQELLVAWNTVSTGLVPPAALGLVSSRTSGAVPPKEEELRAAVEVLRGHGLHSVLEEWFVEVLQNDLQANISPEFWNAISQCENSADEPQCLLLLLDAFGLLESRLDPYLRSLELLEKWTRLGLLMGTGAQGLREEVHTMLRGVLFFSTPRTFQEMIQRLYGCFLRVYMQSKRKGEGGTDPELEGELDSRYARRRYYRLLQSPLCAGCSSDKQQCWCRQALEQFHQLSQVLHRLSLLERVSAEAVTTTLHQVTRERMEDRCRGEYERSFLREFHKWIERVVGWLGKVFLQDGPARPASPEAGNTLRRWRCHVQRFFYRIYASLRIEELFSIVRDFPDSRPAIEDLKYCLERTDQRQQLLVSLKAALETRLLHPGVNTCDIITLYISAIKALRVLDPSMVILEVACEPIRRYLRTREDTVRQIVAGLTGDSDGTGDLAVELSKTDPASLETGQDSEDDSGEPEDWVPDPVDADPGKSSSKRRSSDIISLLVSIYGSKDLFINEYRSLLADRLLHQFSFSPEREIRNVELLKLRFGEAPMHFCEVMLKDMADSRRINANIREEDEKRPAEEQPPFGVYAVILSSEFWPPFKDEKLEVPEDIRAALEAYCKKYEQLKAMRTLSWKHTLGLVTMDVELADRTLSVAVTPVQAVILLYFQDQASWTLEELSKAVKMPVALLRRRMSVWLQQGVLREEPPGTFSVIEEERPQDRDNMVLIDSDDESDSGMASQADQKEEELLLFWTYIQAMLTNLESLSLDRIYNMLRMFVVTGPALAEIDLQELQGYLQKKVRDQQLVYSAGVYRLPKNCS

SMILES	APC Flag (gel) [1]	APC Flag 8 pt [6]	PAD Assay, A549 6 pt (A549 cells [2])	Cell Titer-Aqueous, A549 6 pt (A549 cells [3])	PAD Assay, HELA 6 pt (HeLa cells [4])	Cell Titer-Aqueous, HELA 6 pt (HeLa cells [5])	PAD Assay, HCT116 6 pt (HCT116 cells)	PAD Assay, H1299 6 pt (H1299 cells)
CSc1ccccc1NS(=O)(=O)c1cc(Cl)c(Oc2ccc([N+](=O)[O-])cc2Cl)c(Cl)c1 [Example 191, 3,5-dichloro-4-(2-chloro-4-nitrophenoxy)-N-[2-(methylthio)phenyl]benzenesulfonamide]	− (gel)		+		+		+	
NC(=O)c1ccccc1NS(=O)(=O)c1cc(Cl)c(Oc2ccc([N+](=O)[O-])cc2Cl)c(Cl)c1 [Example 193, 2-({[3,5-dichloro-4-(2-chloro-4-nitrophenoxy)phenyl]sulfonyl}amino)benzamide]	− (gel)							
O=[N+]([O-])c1ccc(Oc2c(Cl)cc(S(=O)(=O)Nc3ccncc3)cc2Cl)c(Cl)c1 [Example 221, 3,5-dichloro-4-(2-chloro-4-nitrophenoxy)-N-pyridin-4-ylbenzenesulfonamide]	− (gel)		−	−	−	−		

More lines, main results first:

APC Flag (gel) [1]	APC Flag 8 pt [6]	SMILES	PAD Assay, A549 6 pt (A549 cells [2])	Cell Titer-Aqueous, A549 6 pt (A549 cells [3])	PAD Assay, HELA 6 pt (HeLa cells [4])	Cell Titer-Aqueous, HELA 6 pt (HeLa cells [5])	PAD Assay, HCT116 6 pt (HCT116 cells)	PAD Assay, H1299 6 pt (H1299 cells)
+ (gel)		O=[N+]([O-])c1ccc(Oc2c(Cl)cc(S(=O)(=O)Nc3ccc4cc[nH]c4c3)cc2Cl)c(Cl)c1 [Example 172, 3,5-dichloro-4-(2-chloro-4-nitrophenoxy)-N-1H-indol-6-ylbenzenesulfonamide]	+	+	+	+		
− (gel)		O=[N+]([O-])c1ccc(Oc2c(Cl)cc(S(=O)(=O)NCCc3ccc(O)cc3)cc2Cl)c(Cl)c1 [Example 223, 3,5-dichloro-4-(2-chloro-4-nitrophenoxy)-N-[2-(4-hydroxyphenyl)ethyl]benzene-sulfonamide]		−		−		
	+	O=S(=O)(Nc1cc(Cl)ccc1Cl)c1ccc(Oc2ncc(C(F)(F)F)cc2Cl)cc1 [Example 253, 4-{[3-chloro-5-(trifluoromethyl)pyridin-2-yl]oxy}-N-(2,5-dichlorophenyl)benzene-sulfonamide]	+		+		+	+

Reference: patent US7915293B2, “Ubiquitin ligase inhibitors” (Rigel Pharmaceuticals, Inc., priority 2003, dated 2011)
